{"source": "patent US20230322767A1", "about": "“ARYL SUBSTITUTED PYRROLO-PYRIDINONES AND THERAPEUTIC USES THEREOF” (Bayer Aktiengesellschaft, priority 2020, published 2023)", "note": "“And” between values parts separate entries of the source, which are not always exact repeats. Identical values can stand only once.", "data": [{"molecular_target": "wild-type Epidermal Growth Factor Receptor (EGFR) (Homo sapiens (Human), UniProt P00533)", "sequence (P00533 669-1210)": "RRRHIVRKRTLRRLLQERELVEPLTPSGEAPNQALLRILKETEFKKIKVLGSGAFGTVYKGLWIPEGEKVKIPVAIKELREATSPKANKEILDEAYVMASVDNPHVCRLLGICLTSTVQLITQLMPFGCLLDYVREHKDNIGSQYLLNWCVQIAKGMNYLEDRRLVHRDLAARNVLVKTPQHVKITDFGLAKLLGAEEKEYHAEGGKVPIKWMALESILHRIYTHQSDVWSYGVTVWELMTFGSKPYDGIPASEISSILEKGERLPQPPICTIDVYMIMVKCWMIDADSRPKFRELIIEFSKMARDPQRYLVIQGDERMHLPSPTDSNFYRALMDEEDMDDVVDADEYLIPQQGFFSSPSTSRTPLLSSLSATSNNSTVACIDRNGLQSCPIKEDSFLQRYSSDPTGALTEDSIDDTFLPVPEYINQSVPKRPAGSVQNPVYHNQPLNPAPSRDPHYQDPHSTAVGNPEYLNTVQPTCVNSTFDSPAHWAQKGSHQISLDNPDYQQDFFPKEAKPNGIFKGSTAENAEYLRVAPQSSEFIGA", "assay": "WT-EGFR Kinase Assay (TR-FRET, 2 mM ATP)", "assay_type": "biochemical", "conditions": "EGFR Wildtyp 2 mM ATP IC50 [mol/l] (median), median or individual measurements", "description": "(§1) Inhibitory activity of compounds of the present invention against wild-type Epidermal Growth Factor Receptor (EGFR) was quantified employing the TR-FRET based EGFR assay as described in the following paragraphs.\n(§2) Recombinant fusion protein of N-terminal Glutathion-S-Transferase (GST) and a fragment of human EGFR (amino acids R669 to A1210), expressed in Sf9 insect cells and purified via affinity chromatography using Glutathion Sepharose as described above, was used as kinase. As substrate for the kinase reaction the biotinylated peptide biotin-Ahx-[…] (C-terminus in amide form) was used which can be purchased e.g. form the company Biosynthan GmbH (Berlin-Buch, Germany).\n(§3) For the assay 50 nl of a 100 fold concentrated solution of the test compound in DMSO was pipetted into either a black low volume 384 well microtiter plate or a black 1536 well microtiter plate (both Greiner Bio-One, Frickenhausen, Germany), 2 μL of a solution of EGFR in aqueous assay buffer [50 mM Hepes pH 7.0, 10 mM MgCl2, 1 mM dithiothreitol, 0.5 mM EGTA, 0.3 mM activated sodium ortho-vanadate, 0.005% (w/v) bovine serum albumin, 0.005% (v/v) Tween-20] were added and the mixture was incubated for 15 min at 22° C. to allow pre-binding of the test compounds to the enzyme before the start of the kinase reaction. […] The concentration of EGFR was adjusted depending of the activity of the enzyme lot and was chosen appropriate to have the assay in the linear range, typical concentration was […]. The reaction was stopped by the addition of 3 μL of a solution of HTRF detection reagents (83.3 nM streptavidine-XL665 [Cisbio Bioassays, Codolet, France] and 1.67 nM PT66-Tb-Cryptate, a terbium-cryptate labelled anti-phospho-tyrosine antibody from Cisbio Bioassays [instead of the PT66-Tb-cryptate PT66-Eu-Chelate from Perkin Elmer can also be used]) in an aqueous EDTA-solution (133.3 mM EDTA, 0.2% (w/v) bovine serum albumin in 50 mM HEPES pH 7.5).\n(§4) The resulting mixture was incubated 1 h at 22° C. to allow the binding of the biotinylated phosphorylated peptide to the streptavidine-XL665 and the PT66-Tb-Cryptate. Subsequently the amount of phosphorylated substrate was evaluated by measurement of the resonance energy transfer from the PT66-Tb-Cryptate to the streptavidine-XL665. Therefore, the fluorescence emissions at 620 nm and 665 nm after excitation at 337 nm were measured in a HTRF reader, e.g. a Pherastar (BMG Labtechnologies, Offenburg, Germany) or a Viewlux (Perkin-Elmer). The ratio of the emissions at 665 nm and at 622 nm was taken as the measure for the amount of phosphorylated substrate.", "values": [{"smiles": "CC(C(=O)Nc1cc(-c2[nH]c3c(c2-c2ccccc2)C(=O)NCC3(C)C)ccn1)c1ccc(F)cc1", "note": "(racemic) [Example 046, N-[4-(7,7-dimethyl-4-oxo-3-phenyl-4,5,6,7-tetrahydro-1H-pyrrolo[3,2-c]pyridin-2-yl)pyridin-2-yl]-2-(4-fluorophenyl)propanamide]", "IC50": "> 20 µM"}, {"smiles": "CC(C(=O)Nc1cc(-c2[nH]c3c(c2-c2ccccc2)C(=O)N(C)C2(CCC2)C3)ccn1)c1ccc(F)cc1", "note": "(single isomer, unassigned; (-)) [Example 053, (-)-2-(4-fluorophenyl)-N-[4-(5′-methyl-4′-oxo-3′-phenyl-1′,4′,5′,7′-tetrahydrospiro[cyclobutane-1,6′-pyrrolo[3,2-c]pyridin]-2′-yl)pyridin-2-yl]propanamide]", "IC50": "> 20 µM"}, {"smiles": "CN1CCc2[nH]c(-c3ccnc(NC(=O)C(CC(F)F)c4ccc(F)cc4)c3)c(-c3cccnc3)c2C1=O", "note": "(racemic) [Example 009, 4,4-difluoro-2-(4-fluorophenyl)-N-{4-[5-methyl-4-oxo-3-(pyridin-3-yl)-4,5,6,7-tetrahydro-1H-pyrrolo[3,2-c]pyridin-2-yl]pyridin-2-yl}butanamide]", "IC50": "> 20 µM"}, {"smiles": "Cn1ccc2[nH]c(-c3ccnc(NC(=O)C(CC(F)F)c4ccc(F)cc4)c3)c(-c3ccccc3)c2c1=O", "note": "(single isomer, unassigned) [Example 008, 4,4-difluoro-2-(4-fluorophenyl)-N-[4-(5-methyl-4-oxo-3-phenyl-4,5-dihydro-1H-pyrrolo[3,2-c]pyridin-2-yl)pyridin-2-yl]butanamide]", "IC50": "7.82 µM and 7.83 µM and > 20 µM (2×)"}, {"smiles": "Cn1cc(CC(F)(F)F)c2[nH]c(-c3ccnc(NC(=O)C(CC(F)F)c4ccc(F)cc4)c3)c(-c3ccccc3)c2c1=O", "note": "(single isomer, unassigned; (-)) [Example 019, (-)-4,4-difluoro-2-(4-fluorophenyl)-N-{4-[5-methyl-4-oxo-3-phenyl-7-(2,2,2-trifluoroethyl)-4,5-dihydro-1H-pyrrolo[3,2-c]pyridin-2-yl]pyridin-2-yl}butanamide]", "IC50": "> 20 µM"}, {"smiles": "CC(C(=O)Nc1cc(-c2[nH]c3c(CC(F)(F)F)cn(C)c(=O)c3c2-c2ccc(F)cc2)ccn1)c1ccc(F)cc1", "note": "(racemic) [Example 022, 2-(4-fluorophenyl)-N-{4-[3-(4-fluorophenyl)-5-methyl-4-oxo-7-(2,2,2-trifluoroethyl)-4,5-dihydro-1H-pyrrolo[3,2-c]pyridin-2-yl]pyridin-2-yl}propanamide]", "IC50": "> 20 µM"}, {"smiles": "Cn1cc(CC(F)(F)F)c2[nH]c(-c3ccnc(NC(=O)C(CC(F)F)c4ccc(F)cc4)c3)c(-c3ccccc3)c2c1=O", "note": "(racemic) [Example 018, 4,4-difluoro-2-(4-fluorophenyl)-N-{4-[5-methyl-4-oxo-3-phenyl-7-(2,2,2-trifluoroethyl)-4,5-dihydro-1H-pyrrolo[3,2-c]pyridin-2-yl]pyridin-2-yl}butanamide]", "IC50": "> 20 µM"}, {"smiles": "CN1C(=O)c2c([nH]c(-c3ccnc(NC(=O)C(CC(F)F)c4ccc(F)cc4)c3)c2-c2ccccc2)CC12CCC2", "note": "(racemic) [Example 049, 4,4-difluoro-2-(4-fluorophenyl)-N-[4-(5′-methyl-4′-oxo-3′-phenyl-1′,4′,5′,7′-tetrahydrospiro[cyclobutane-1,6′-pyrrolo[3,2-c]pyridin]-2′-yl)pyridin-2-yl]butanamide]", "IC50": "> 20 µM"}, {"smiles": "Cn1cc(CC(F)(F)F)c2[nH]c(-c3ccnc(NC(=O)C(CC(F)F)c4ccc(F)cc4)c3)c(-c3ccc(F)cc3)c2c1=O", "note": "(single isomer, unassigned) [Example 028, 4,4-difluoro-2-(4-fluorophenyl)-N-{4-[3-(4-fluorophenyl)-5-methyl-4-oxo-7-(2,2,2-trifluoroethyl)-4,5-dihydro-1H-pyrrolo[3,2-c]pyridin-2-yl]pyridin-2-yl}butanamide]", "IC50": "> 5.71 µM"}, {"smiles": "CC(C(=O)Nc1cc(-c2[nH]c3c(CC4CC4)cn(C)c(=O)c3c2-c2ccc(F)cc2)ccn1)c1ccc(F)cc1", "note": "(racemic) [Example 063, N-{4-[7-(cyclopropylmethyl)-3-(4-fluorophenyl)-5-methyl-4-oxo-4,5-dihydro-1H-pyrrolo[3,2-c]pyridin-2-yl]pyridin-2-yl}-2-(4-fluorophenyl)propanamide]", "IC50": "> 20 µM"}, {"smiles": "Cn1cc(CC(F)(F)F)c2[nH]c(-c3ccnc(NC(=O)C(CC(F)F)c4ccc(F)cc4)c3)c(-c3ccc(F)cc3)c2c1=O", "note": "(racemic) [Example 026, 4,4-difluoro-2-(4-fluorophenyl)-N-{4-[3-(4-fluorophenyl)-5-methyl-4-oxo-7-(2,2,2-trifluoroethyl)-4,5-dihydro-1H-pyrrolo[3,2-c]pyridin-2-yl]pyridin-2-yl}butanamide]", "IC50": "> 20 µM"}, {"smiles": "CC(C(=O)Nc1cc(-c2[nH]c3c(CC4CC4)cn(C)c(=O)c3c2-c2ccccc2)ccn1)c1ccc(F)cc1", "note": "(racemic) [Example 058, N-{4-[7-(cyclopropylmethyl)-5-methyl-4-oxo-3-phenyl-4,5-dihydro-1H-pyrrolo[3,2-c]pyridin-2-yl]pyridin-2-yl}-2-(4-fluorophenyl)propanamide]", "IC50": "> 20 µM"}, {"smiles": "CN1CCc2[nH]c(-c3ccnc(NC(=O)C(CC(F)F)c4ccc(F)cc4)c3)c(-c3cccnc3)c2C1=O", "note": "(single isomer, unassigned) [Example 010, 4,4-difluoro-2-(4-fluorophenyl)-N-{4-[5-methyl-4-oxo-3-(pyridin-3-yl)-4,5,6,7-tetrahydro-1H-pyrrolo[3,2-c]pyridin-2-yl]pyridin-2-yl}butanamide]", "IC50": "> 20 µM"}, {"smiles": "Cc1cn(C)c(=O)c2c(-c3ccc(F)cc3)c(-c3ccnc(NC(=O)C(C)c4ccc(F)cc4)c3)[nH]c12", "note": "(racemic) [Example 030, 2-(4-fluorophenyl)-N-{4-[3-(4-fluorophenyl)-5,7-dimethyl-4-oxo-4,5-dihydro-1H-pyrrolo[3,2-c]pyridin-2-yl]pyridin-2-yl}propanamide]", "IC50": "> 20 µM"}]}, {"molecular_target": "wild-type Epidermal Growth Factor Receptor (EGFR) (Homo sapiens (Human), UniProt P00533)", "assay": "WT-EGFR Kinase Assay (TR-FRET, 2 mM ATP)", "assay_type": "biochemical", "conditions": "read-out: EGFR Wildtyp 2 mM ATP IC50 [mol/l] (median), median or individual measurements", "description": "as §1, §2, §3, §4", "units": {"IC50": "µM"}, "values": [{"smiles": "CC1c2[nH]c(-c3ccnc(NC(=O)C(CC(F)F)c4ccc(F)cc4)c3)c(-c3ccccc3)c2C(=O)N(C)C1C", "note": "(centres unmarked) [Example 041]", "IC50": "> 20"}, {"smiles": "CC1(C)CNC(=O)c2c1[nH]c(-c1ccnc(NC(=O)C(CC(F)F)c3ccc(F)cc3)c1)c2-c1ccccc1", "note": "(single isomer, unassigned) [Example 045, N-[4-(7,7-dimethyl-4-oxo-3-phenyl-4,5,6,7-tetrahydro-1H-pyrrolo[3,2-c]pyridin-2-yl)pyridin-2-yl]-4,4-difluoro-2-(4-fluorophenyl)butanamide]", "IC50": "> 20"}, {"smiles": "CC1CN(C)C(=O)c2c1[nH]c(-c1ccnc(NC(=O)C(C)c3ccc(F)cc3)c1)c2-c1ccc(F)cc1", "note": "(centres unmarked) [Example 029]", "IC50": "> 20"}, {"smiles": "Cn1cc(CC2CC2)c2[nH]c(-c3ccnc(NC(=O)Cc4ccc(F)cc4)c3)c(-c3ccccc3)c2c1=O", "note": "[Example 056, N-{4-[7-(cyclopropylmethyl)-5-methyl-4-oxo-3-phenyl-4,5-dihydro-1H-pyrrolo[3,2-c]pyridin-2-yl]pyridin-2-yl}-2-(4-fluorophenyl)acetamide]", "IC50": "> 20"}, {"smiles": "CC(C(=O)Nc1cc(-c2[nH]c3c(c2-c2ccccc2)C(=O)N(C)C2(CCC2)C3)ccn1)c1ccc(F)cc1", "note": "(single isomer, unassigned; (+)) [Example 054, (+)-2-(4-fluorophenyl)-N-[4-(5′-methyl-4′-oxo-3′-phenyl-1′,4′,5′,7′-tetrahydrospiro[cyclobutane-1,6′-pyrrolo[3,2-c]pyridin]-2′-yl)pyridin-2-yl]propanamide]", "IC50": "> 20"}, {"smiles": "CN1CC(CC(F)(F)F)c2[nH]c(-c3ccnc(NC(=O)C(CC(F)F)c4ccc(F)cc4)c3)c(-c3ccc(F)cc3)c2C1=O", "note": "(centres unmarked) [Example 025]", "IC50": "> 20"}, {"smiles": "Cn1cc(CC(F)(F)F)c2[nH]c(-c3ccnc(NC(=O)C(CC(F)F)c4ccc(F)cc4)c3)c(-c3ccccc3)c2c1=O", "note": "(single isomer, unassigned; (+)) [Example 020, (+)-4,4-difluoro-2-(4-fluorophenyl)-N-{4-[5-methyl-4-oxo-3-phenyl-7-(2,2,2-trifluoroethyl)-4,5-dihydro-1H-pyrrolo[3,2-c]pyridin-2-yl]pyridin-2-yl}butanamide]", "IC50": "> 20"}, {"smiles": "CC1CN(C)C(=O)c2c1[nH]c(-c1ccnc(NC(=O)C(C)c3ccc(F)cc3)c1)c2-c1ccccc1", "note": "(centres unmarked) [Example 037]", "IC50": "> 20"}, {"smiles": "CN1CCc2[nH]c(-c3ccnc(NC(=O)Cc4ccc(F)cc4)c3)c(-c3cccnc3)c2C1=O", "note": "[Example 012, 2-(4-fluorophenyl)-N-{4-[5-methyl-4-oxo-3-(pyridin-3-yl)-4,5,6,7-tetrahydro-1H-pyrrolo[3,2-c]pyridin-2-yl]pyridin-2-yl}acetamide]", "IC50": "> 20"}]}]}
